Data reported in paper PMC8199613, “Discovery of Novel Small-Molecule Inhibitors of PD-1/PD-L1 Interaction via Structural Simplification Strategy” (Molecules, 2021).
In brackets after ≈: the same amount, converted by molar mass.

Experiments:
PD-1/PD-L1 interaction = molecular target: T1, PD-1/PD-L1 interaction (Homo sapiens, UniProt Q9NZQ7); assay: HTRF-based PD-1/PD-L1 binding assay; conditions: for IC50 / inhibition at 0.1 µM / inhibition at 1 µM: HTRF; for IC50: two independent experiments; for LE: LE = −1.35 logIC50/Nheavy atoms (HTRF IC50); for inhibition at 0.1 µM: 0.1 μM compound, read-out: Inhibitory Rate (%) 0.1 μM; for inhibition at 1 µM: 1 μM compound, read-out: Inhibitory Rate (%) 1 μM
T1 construct: purchased Cisbio 64ICP01PEG

MDA-MB-231 cells = assay: MTT non-specific cytotoxicity assay, MDA-MB-231; format: cell-based; conditions: for EC50: Homo sapiens, MDA-MB-231, 48 h, read-out: EC50 (μM)/MDA-MB-231 Toxicity; for direct killing of tumor cells: as shown in Table 3
Method: (§1) Considering that the toxicity of the compound might strongly interfere with the assay if the tested compounds could block PD-1/PD-L1 interaction to activate T cells for killing tumors, we examined their cell toxicities of MDA-MB-231 and Jurkat T cells in MTT assay. […] Furthermore, Jurkat T cells were used to simulate primary T cells for investigating the immune toxicity of the treated compounds with the regular concentrations within 48 h.
(§2) The MDA-MB-231 and Jurkat cell line was provided by the Chinese Academy of Sciences Cell Bank. The cytotoxicity of the test compounds was determined using the MTT assay. Briefly, MDA-MB-231 and Jurkat cells were incubated at 37 °C in a humidified 5% CO2 incubator for 24 h in 96-microwell plates. Then, 100 μL of culture medium containing the test compounds at different concentrations was added to each well and incubated at 37 °C for another 48 h. The MTT was added and incubated for another 4 h, and the optical density was detected with a microplate reader at 570 nm. The IC50 values were calculated according to the dose-dependent curves.

Jurkat T cells = assay: MTT non-specific cytotoxicity assay, Jurkat; format: cell-based; conditions: for EC50: Homo sapiens, Jurkat, MTT, 48 h, read-out: EC50 (μM)/Jurkat Toxicity; for immune toxicity in Jurkat T cells: regular concentrations within 48 h
Method: as §1, §2

hPD-L1 = hPD-L1 (Homo sapiens, UniProt Q9NZQ7); assay: SPR binding affinity assay (Biacore T200)
Method: To provide definitive evidence of direct binding to PD-L1 with small-molecule inhibitors, an SPR-based binding assay was performed using Biacore T200 instrument, which facilitates measurement of the kinetic parameters of ligand–protein complex formation. In this determination, hPD-L1/Fc was loaded on a Series S Sensor Chip Protein A. A9 and A15, with similar bioactivities in HTRF assay, were gradually subjected to this assay, and their kinetic parameters and the binding affinities were determined with the aid of Biacore evaluation software.
SPR analysis was carried out according to the method described by a previous article. The kinetic analysis for the interaction of small molecules with hPD-L1 was performed on a Biacore T200 (GE Healthcare Bio-sciences, Uppsala, Sweden) using Series S Sensor Chip Protein A (GE Healthcare Bio-sciences, Uppsala, Sweden, catalog # 29139131-AA). Briefly, Fc-hPD-L1 (Acro Biosystems, Cambridge, MA, USA, catalog #PD1-H5258) was diluted using 1 × PBS-P^+ buffer (phosphate buffer 1×, GE Healthcare Bio-sciences, catalog # 28-9950-84, enriched with 0.05% surfactant P20) containing 5% DMSO (Sigma-Aldrich, St. Louis, MO, America, catalog # D4540) and captured as the ligand (i.e., the target of small molecules) on protein A chip surface following Biacore T200 build-in protocol for kinetic/affinity analysis at a concentration of 10 μg/mL. The contact time and flow rates were set as 120 s and 10 μL/min for the ligand capture. Each experiment was performed using a pair of flow cells, one with ligand captured and the other kept as reference. A concentration gradient of analytes was freshly prepared in 1× PBS-P^+ buffer with 5% DMSO with at least five concentrations, and the concentration range was optimized according to different analytes. Analytes could flow through both ligand-captured flow cells and reference flow cells at the same rate (30 μL/min) and contact time (90 s). Solvent correction was included to avoid the impact of DMSO on surface plasmon effect during binding analysis. Extra washing of the flow system using 50% DMSO in 1×PBS-P^+ buffer was allowed to control carry over effects. For the regeneration of surface after each cycle (one-time ligand capture and binding of analyte at a single concentration) was carried out using 10 mM glycine pH 1.5 (GE Healthcare Bio-sciences, Uppsala, Sweden, catalog #BR-1003-54) at a flow rate of 30 μL/min for 30 s. Kinetic analysis was performed at 25 °C. Maximum binding response (Rmax) and equilibrium dissociation […] (KD) values were calculated using Biacore T200 Evaluation software following the 1:1 binding model.

Water solubility by HPLC = format: physicochemical; conditions: aqueous buffer, thermodynamic from solid, pH 7.4, PBS
Method: The aqueous solubility was estimated by HPLC. The HPLC analysis was performed on a Shimadzu LC-20AT machine with a BDS Hypersil C18 column, and the column temperature was at 28 °C. Mobile phase B (100% MeOH) and mobile phase A (100% water) were used in a gradient elution program (0 min: 30% (B), 2 min: 50% (B), 8 min: 95% (B), 14 min: 95% (B), 18 min: 70% (B), 20 min: 30% (B)) with a flow rate of 1.0 mL/min at […]. Methanol was used to configure an accurate compounds concentration to calculate the standard curve. The excess test compound was dissolved in PBS (KH2PO4 0.24 g + KCl 0.2 g + NaCl 8 g + Na2HPO4·12H2O 3.58 g + 1 L water) and then analyzed by HPLC.

T1 sequence (Q9NZQ7 19-238 limits assumed): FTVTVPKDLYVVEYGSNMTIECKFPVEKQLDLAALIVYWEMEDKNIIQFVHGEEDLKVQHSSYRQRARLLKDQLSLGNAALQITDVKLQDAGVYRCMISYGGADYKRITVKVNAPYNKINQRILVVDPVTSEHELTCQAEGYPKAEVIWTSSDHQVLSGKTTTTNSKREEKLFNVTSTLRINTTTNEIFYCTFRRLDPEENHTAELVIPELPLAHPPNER
Chain of hPD-L1 (Q9NZQ7 19-238 limits assumed): as above

| Structure (SMILES) | melting point [°C] | IC50 (PD-1/PD-L1 interaction) [nM] | LE (PD-1/PD-L1 interaction) | further results |
| --- | --- | --- | --- | --- |
| COc1nc(-c2cccc(-c3ccccc3Cl)c2C)ccc1CNCCC(N)=O [Compound A11] | 49 to 51 | 6.18 | 0.39 | EC50 (MDA-MB-231 cells): 7.1 µM; direct killing of tumor cells (MDA-MB-231 cells): do not directly kill tumor cells; EC50 (Jurkat T cells): 5.5 µM; immune toxicity in Jurkat T cells (Jurkat T cells): lower cell toxicity |
| COc1nc(-c2cccc(-c3ccc(Cl)cc3F)c2C)ccc1CNCCC(N)=O [Compound A17] | 122 to 124 | 866 | 0.28 |  |
| COc1nc(-c2cccc(-c3ccccc3)c2C)ccc1CNCCC(N)=O [Compound A13] | 127 to 128 | 1.94 | 0.43 | increase in potency over compound A11 (PD-1/PD-L1 interaction; HTRF IC50 ratio): approximately 3 fold; EC50 (MDA-MB-231 cells): > 10 µM; direct killing of tumor cells (MDA-MB-231 cells): do not directly kill tumor cells; EC50 (Jurkat T cells): 7.73 µM |
| COc1nc(-c2cccc(-c3ccccc3C(F)(F)F)c2C)ccc1CNCCC(N)=O [Compound A12] | 50.5 to 53.5 | 51.5 | 0.31 | decrease in activity as compared with A9 (PD-1/PD-L1 interaction; HTRF IC50 ratio): more than 10 fold |
| COc1nc(-c2cccc(-c3ccc(C(F)(F)F)cc3F)c2C)ccc1CNCCC(N)=O [Compound A18] | 137 to 139 | 791 | 0.25 |  |
| COc1nc(-c2cccc(-c3cccc(F)c3)c2C)ccc1CNCCC(N)=O [Compound A14, 3-(((6-(3′-Fluoro-2-methyl-[1,1′-biphenyl]-3-yl)-2-methoxypyridin-3-yl)methyl)amino)propenamide] | 48 to 51 | 1.75 | 0.41 | EC50 (MDA-MB-231 cells): > 10 µM; direct killing of tumor cells (MDA-MB-231 cells): do not directly kill tumor cells; EC50 (Jurkat T cells): > 10 µM |
| COc1nc(-c2cccc(-c3ccccc3F)c2C)ccc1CNC1CCC(O)CC1 (stereo not drawn) [Compound A5, 4-(((6-(2′-Fluoro-2-methyl-[1,1′-biphenyl]-3-yl)-2-methoxypyridin-3-yl)methyl)amino)cyclohexan-1-ol] | 80 to 82 | 14.3 | 0.35 |  |
| Cc1ccccc1-c1cccc(OCCCN2CCC(O)CC2)c1C.Cl [Compound A1, 1-(3-((2,2′-Dimethyl-[1,1′-biphenyl]-3-yl)oxy)propyl)piperidin-4-ol hydrochloride] |  | 114 | 0.38 | inhibition at 0.1 µM (PD-1/PD-L1 interaction): 56%; inhibition at 1 µM (PD-1/PD-L1 interaction): 90% |
| COc1nc(-c2cccc(-c3ccccc3C)c2C)ccc1CNCCC(N)=O [Compound A10] | 70 to 73 | 10.5 | 0.38 | decrease in activity as compared with A9 (PD-1/PD-L1 interaction; HTRF IC50 ratio): more than 10 fold |
| COc1nc(-c2cccc(-c3ccccc3F)c2C)ccc1CN1CCC(O)CC1 [Compound A4, 1-((6-(2′-Fluoro-2-methyl-[1,1′-biphenyl]-3-yl)-2-methoxypyridin-3-yl)methyl)piperidin-4-ol] | 84 to 86 | 21.9 | 0.36 | inhibition at 0.1 µM (PD-1/PD-L1 interaction): 71%; inhibition at 1 µM (PD-1/PD-L1 interaction): 98% |
| COc1nc(-c2cccc(-c3ccc(F)cc3)c2C)ccc1CNCCC(N)=O [Compound A15] | 120 to 122 | 0.97 | 0.43 | EC50 (MDA-MB-231 cells): 10.2 µM; direct killing of tumor cells (MDA-MB-231 cells): do not directly kill tumor cells; LE (hPD-L1; LE = -1.35log KD/Nheavy atoms (SPR KD)): 0.36; kon (hPD-L1; SPR association rate, read-out: Ka (M-1s-1) / Kon): 505000 M⁻¹ s⁻¹; koff (hPD-L1; SPR dissociation rate, read-out: Kd (s-1) / Koff): 0.0101 s⁻¹; Kd (hPD-L1; SPR, 25 °C, 1:1 binding model): 19.9 nM; EC50 (Jurkat T cells): 5.5 µM; immune toxicity in Jurkat T cells (Jurkat T cells): lower cell toxicity |
| COc1cc(-c2cccc(-c3ccccc3F)c2C)ccc1CN1CCC(O)CC1 [Compound A3, 1-((2″-Fluoro-3-methoxy-2′-methyl-[1,1′:3′,1″-terphenyl]-4-yl)methyl)piperidin-4-ol] | 61.5 to 63.5 | 18.4 | 0.35 | inhibition at 0.1 µM (PD-1/PD-L1 interaction): 74.5%; inhibition at 1 µM (PD-1/PD-L1 interaction): 96.2% |
| COc1nc(OCc2cccc(-c3ccccc3)c2C)ccc1CNCCNC(C)=O [BMS-202, reference compound] |  |  |  | solubility (Water solubility by HPLC): 90 µg/mL (≈ 215 µM) |
| COc1nc(-c2cccc(-c3ccc(F)cc3F)c2C)ccc1CNCCC(N)=O [Compound A16] | 113 to 115 | 60 | 0.33 |  |
| Cc1c(CN2CCC(N3CCC(O)CC3)CC2)cccc1-c1ccccc1F [Compound A2, 1′-((2′-Fluoro-2-methyl-[1,1′-biphenyl]-3-yl)methyl)-[1,4′-bipiperidin]-4-ol] | 110 to 113 |  |  | inhibition at 0.1 µM (PD-1/PD-L1 interaction): 8.5%; inhibition at 1 µM (PD-1/PD-L1 interaction): 6.7% |
| COc1nc(-c2cccc(-c3ccccc3F)c2C)ccc1CN1CCCC(C(N)=O)C1 (stereo not drawn) [Compound A6, 1-((6-(2′-Fluoro-2-methyl-[1,1′-biphenyl]-3-yl)-2-methoxypyridin-3-yl)methyl)piperidine-3-carboxamide] | 88 to 91 | 121 | 0.30 |  |
| COc1nc(-c2cccc(-c3ccccc3F)c2C)ccc1CN1CCC(C(=O)O)CC1 [Compound A8, 1-((6-(2′-Fluoro-2-methyl-[1,1′-biphenyl]-3-yl)-2-methoxypyridin-3-yl)methyl)piperidine-4-carboxylic acid] | 218 to 220 | 20.6 | 0.33 |  |
| COc1nc(-c2cccc(-c3ccccc3F)c2C)ccc1CN1CCC(C(N)=O)CC1 [Compound A7, 1-((6-(2′-Fluoro-2-methyl-[1,1′-biphenyl]-3-yl)-2-methoxypyridin-3-yl)methyl)piperidine-4-carboxamide] | 194 to 196 | 10.7 | 0.34 |  |
